The values that follow are results of earlier work, collected in patent US11793762B2, “Composition and method for reducing joint pain associated with hemarthrosis and hemophilic arthropathy” (UPEXMED CO. LTD., priority 2018, dated 2023).

Values after ≈ are worked out from the molar mass of the structure shown.

Take `Cc1ccc(-c2cc(C(F)(F)F)nn2-c2ccc(S(N)(=O)=O)cc2)cc1` [Celecoxib]: the solubility in water is 4300 µg/mL (≈ 11.3 mM).
